Assay results published in patent US10577373B2, “TYK2 inhibitors and uses thereof” (Nimbus Lakshmi, Inc., priority 2017, dated 2020).

The molecules below were run on IL-12 induced STAT4 phophorylation mediated by Tyk2/JAK2 (heterodimeric complex) (assay: IL-12 Induced pSTAT4 in Human PBMC). Details: 1.7 ng/mL IL-12.
Type: cell-based
Excerpt: The IL-12 Induced pSTAT4 assay evaluates the inhibition of IL-12 induced STAT4 phophorylation mediated by Tyk2/JAK2 (heterodimeric complex).

CNc1cc(Nc2cccn(-c3cnn(C)c3F)c2=O)nc2c(C(=O)N[C@H]3CC[C@@H]3OC)cnn12 [I-1369] and CNc1cc(Nc2cccn([C@@H]3CC[C@@H]3O)c2=O)nc2c(C(=O)N[C@@H]3CC[C@H]3OC)cnn12 [I-1350] cannot be ordered by IC50: less than 0.1 µM for the first, less than 0.1 µM for the second.

CNc1cc(-c2cn([C@H]3CCCOC3)c3ncccc23)nc2c(C(=O)N[C@H]3CC[C@@H]3OC)cnn12 [I-1365] and CNc1cc(-c2cn([C@@H]3CCCOC3)c3ncccc23)nc2c(C(=O)N[C@H]3CC[C@@H]3OC)cnn12 [I-1364] cannot be ordered by IC50: less than 0.1 µM for the first, less than 0.1 µM for the second.

CNc1cc(Nc2cccn(-c3ccccn3)c2=O)nc2c(C(=O)N[C@@H]3C[C@H]3OC)cnn12 [I-1286] and CNc1cc(Nc2cccn3cnnc23)nc2c(C(=O)N[C@H]3CC[C@@H]3OC)cnn12 [I-1343] cannot be ordered by IC50: less than 0.1 µM for the first, less than 0.1 µM for the second.

CNC(=O)c1occc1Nc1cc(NC)n2ncc(C(=O)N[C@H]3CC[C@@H]3OC)c2n1 [I-1323] and CNc1cc(Nc2cccn([C@@H]3CCCOC3)c2=O)nc2c(C(=O)NC3CC3)cnn12 [I-351] cannot be ordered by IC50: less than 0.1 µM for the first, less than 0.1 µM for the second.

First: CNc1cc(Nc2cccn(-c3nn(C)cc3C)c2=O)nc2c(C(=O)NC3CC3)cnn12 [I-404]
Second: CNc1cc(Nc2cccn([C@H]3CC[C@](C)(O)CC3)c2=O)nc2c(C(=O)NC3CC3)cnn12 [I-371]
The IC50 of the first is higher: greater than 1 µM for the first, 0.1 to 0.5 µM for the second.

These molecules were tested on GM-CSF induced STAT5 phosphorylation mediated by the JAK2/JAK2 homdimeric complex (assay: GM-CSF Induced pSTAT5 in Human PBMC). Details: Homo sapiens, PBMC, 20 min, read-out: PBMC_GMCSF_pSTAT5 IC50, human PBMC; GM-CSF 5 ng/mL for 20 minutes; pSTAT5.
Excerpt: Human PBMC are isolated from buffy coat and are stored frozen for assays as needed.

CNc1cc(Nc2cccn(-c3ncc(C)s3)c2=O)nc2c(C(=O)N[C@@H]3CC[C@H]3O)cnn12 [I-1070] and CNc1cc(Nc2cccn(-c3cnco3)c2=O)nc2c(C(=O)N[C@H]3CC[C@H]3O)cnn12 [I-1017] cannot be ordered by IC50: greater than 12.5 µM for the first, greater than 12.5 µM for the second.

CNc1cc(-c2cn(C3CC3)c3ncccc23)nc2c(C(=O)N[C@H]3CC[C@@H]3OC)cnn12 (stereo in doubt) [I-1067, 5-(1-cyclopropyl-1H-pyrrolo[2,3-b]pyridin-3-yl)-N-(2-methoxycyclobutyl)-7-(methylamino)pyrazolo[1,5-a]pyrimidine-3-carboxamide] and CNc1cc(-c2cn(C3CCOCC3)c3ncccc23)nc2c(C(=O)NC3CCC3O)cnn12 (stereo not shown) [I-1048, N-(2-hydroxycyclobutyl)-7-(methylamino)-5-(1-(tetrahydro-2H-pyran-4-yl)-1H-pyrrolo[2,3-b]pyridin-3-yl)pyrazolo[1,5-a]pyrimidine-3-carboxamide] cannot be ordered by IC50: greater than 12.5 µM for the first, greater than 2.5 µM for the second.

CNc1cc(Nc2cccn([C@@H]3CCN(CCF)C3)c2=O)nc2c(C(=O)NC3CCC3OC)cnn12 (stereo partly drawn) [I-1096, 5-((1-((R)—1-(2-fluoroethyl)pyrrolidin-3-yl)-2-oxo-1,2-dihydropyridin-3-yl)amino)-N-(2-methoxycyclobutyl)-7-(methylamino)pyrazolo[1,5-a]pyrimidine-3-carboxamide] and CNc1cc(Nc2cccn([C@H]3CCN(CCF)C3)c2=O)nc2c(C(=O)N[C@H]3CC[C@@H]3OC)cnn12 [I-1050, 5-((1-((S)-1-(2-fluoroethyl)pyrrolidin-3-yl)-2-oxo-1,2-dihydropyridin-3-yl)amino)-N-((1 S,2S)-2-methoxycyclobutyl)-7-(methylamino)pyrazolo[1,5-a]pyrimidine-3-carboxamide] cannot be ordered by IC50: greater than 50 µM for the first, greater than 50 µM for the second.

CNc1cc(-c2cn(C(C)C)c3ncc(F)cc23)nc2c(C(=O)N[C@H]3CC[C@H]3O)cnn12 [I-1013, 5-(5-fluoro-1-isopropyl-1-pyrrolo[2,3-b]pyridin-3-yl)-N-(2-hydroxycyclobutyl)-7-(methylamino)pyrazolo[1,5-a]pyrimidine-3-carboxamide] and CNc1cc(-c2cn(C(C)C)c3ncc(F)cc23)nc2c(C(=O)N[C@H]3CC[C@@H]3OC)cnn12 [I-1053, 5-(5-fluoro-1-isopropyl-1H-pyrrolo[2,3-b]pyridin-3-yl)-N-((1S,2S)-2-methoxycyclobutyl)-7-(methylamino)pyrazolo[1,5-a]pyrimidine-3-carboxamide] cannot be ordered by IC50: greater than 12.5 µM for the first, greater than 12.5 µM for the second.

CNc1cc(Nc2cccn(-c3cccc(F)c3)c2=O)nc2c(C(=O)N[C@H]3CC[C@H]3O)cnn12 [I-1004] and CNc1cc(Nc2cccn(-c3ccccc3F)c2=O)nc2c(C(=O)N[C@H]3CC[C@H]3O)cnn12 [I-1035] cannot be ordered by IC50: greater than 12.5 µM for the first, greater than 2.5 µM for the second.

CNc1cc(Nc2cccc3ocnc23)nc2c(C(=O)NC3CCC3OC)cnn12 (stereo not shown) [I-1051, 5-(benzo[d]oxazol-4-ylamino)-N-(2-methoxycyclobutyl)-7-(methylamino) pyrazolo[1,5-a]pyrimidine-3-carboxamide] and CNc1cc(Nc2cccn3ccnc23)nc2c(C(=O)N[C@H]3CC[C@@H]3OC)cnn12 [I-1052] cannot be ordered by IC50: greater than 50 µM for the first, greater than 50 µM for the second.

CNc1cc(Nc2cccn([C@H]3CCCC[C@H]3O)c2=O)nc2c(C(=O)NC3CC3)cnn12 [I-878] and CNc1cc(Nc2cccn([C@H]3CCC[C@H]3O)c2=O)nc2c(C(=O)NC3CC3)cnn12 [I-963] cannot be ordered by IC50: greater than 50 µM for the first, greater than 50 µM for the second.

CNc1cc(Nc2cccn([C@H]3CCC[C@H](OC)C3)c2=O)nc2c(C(=O)N[C@@H]3C[C@@H]3F)cnn12 [I-1042] and CNc1cc(Nc2cccn([C@@H]3CCC[C@@H](O)C3)c2=O)nc2c(C(=O)N[C@@H]3C[C@@H]3F)cnn12 [I-1029] cannot be ordered by IC50: greater than 2.5 µM for the first, greater than 2.5 µM for the second.

CNc1cc(Nc2cc(Cl)cn(-c3cnn(C)c3F)c2=O)nc2c(C(=O)NC3CC3)cnn12 [I-955] and CNc1cc(Nc2cccn(-c3cnn(C)c3F)c2=O)nc2c(C(=O)N[C@H]3CC[C@@H]3OC)cnn12 [I-1066] cannot be ordered by IC50: greater than 12.5 µM for the first, greater than 50 µM for the second.

CNc1cc(Nc2cccn([C@H]3CCCC[C@H]3O)c2=O)nc2c(C(=O)N[C@@H]3CC[C@H]3OC)cnn12 [I-1057] and CNc1cc(Nc2cccn([C@H]3CCC[C@H]3O)c2=O)nc2c(C(=O)N[C@H]3CC[C@@H]3OC)cnn12 [I-1101] cannot be ordered by IC50: greater than 50 µM for the first, greater than 50 µM for the second.

CNc1cc(Nc2cccn([C@H]3[C@@H]4COC[C@@H]43)c2=O)nc2c(C(=O)N[C@H]3CC[C@@H]3OC)cnn12 [I-1088] and CNc1cc(Nc2cccn([C@@H]3CC[C@H]3O)c2=O)nc2c(C(=O)N[C@H]3CC[C@@H]3OC)cnn12 [I-1093] cannot be ordered by IC50: greater than 50 µM for the first, greater than 50 µM for the second.

CNc1cc(Nc2cccn([C@H]3CCC[C@H](OC)C3)c2=O)nc2c(C(=O)NC3CC3)cnn12 [I-1025] and CNc1cc(Nc2cccn([C@@H]3CCC[C@@H](OC)C3)c2=O)nc2c(C(=O)NC3CC3)cnn12 [I-957] cannot be ordered by IC50: greater than 50 µM for the first, greater than 50 µM for the second.

CNc1cc(Nc2cccn([C@H]3CC[C@](C)(OC)CC3)c2=O)nc2c(C(=O)N[C@H]3CC[C@@H]3OC)cnn12 [I-1105] and CNc1cc(Nc2cccn([C@H]3CCC[C@@H](OC)C3)c2=O)nc2c(C(=O)N[C@H]3CC[C@@H]3OC)cnn12 [I-996] cannot be ordered by IC50: greater than 50 µM for the first, greater than 50 µM for the second.

CNc1cc(Nc2cccn([C@H]3CCCN(CCF)C3)c2=O)nc2c(C(=O)N[C@@H]3CC[C@H]3OC)cnn12 [I-1059] and CNc1cc(Nc2cccn([C@@H]3CCCN(CCF)C3)c2=O)nc2c(C(=O)N[C@@H]3CC[C@H]3OC)cnn12 [I-1095] cannot be ordered by IC50: greater than 50 µM for the first, greater than 50 µM for the second.

CNc1cc(Nc2cccn([C@@H]3CC[C@H]3OC)c2=O)nc2c(C(=O)N[C@@H]3C[C@@H]3F)cnn12 [I-1022] and CNc1cc(Nc2cccn([C@@H]3CC[C@H]3O)c2=O)nc2c(C(=O)N[C@@H]3C[C@@H]3F)cnn12 [I-999] cannot be ordered by IC50: greater than 12.5 µM for the first, greater than 50 µM for the second.

CNc1cc(Nc2cccn([C@H]3CCC[C@H](OC)C3)c2=O)nc2c(C(=O)NCC3(CO)CC3)cnn12 [I-1010] and CNc1cc(Nc2cccn([C@H]3CCC[C@H](OC)C3)c2=O)nc2c(C(=O)NCC(C)(C)CO)cnn12 [I-958] cannot be ordered by IC50: greater than 50 µM for the first, greater than 50 µM for the second.

CNc1cc(Nc2cccn([C@H]3CCC[C@H](O)C3)c2=O)nc2c(C(=O)N[C@H]3CC[C@@H]3OC)cnn12 [I-1063] and CNc1cc(Nc2cccn([C@H]3CCC[C@H](OC)C3)c2=O)nc2c(C(=O)N[C@H]3CC[C@@H]3OC)cnn12 [I-1098] cannot be ordered by IC50: greater than 50 µM for the first, greater than 50 µM for the second.

CNc1cc(Nc2cccn(-c3ccccn3)c2=O)nc2c(C(=O)N[C@H]3CC[C@@H]3O)cnn12 [I-971] and CNc1cc(Nc2cccn(-c3ccccc3F)c2=O)nc2c(C(=O)N[C@H]3CC[C@@H]3O)cnn12 [I-1038] cannot be ordered by IC50: greater than 50 µM for the first, greater than 50 µM for the second.

[2H]C([2H])([2H])Oc1ncccc1Nc1cc(NC)n2ncc(C(=O)NC3CC4(COC4)C3)c2n1 [I-417, 5-((2-(methoxy-d3)pyridin-3-yl)amino)-7-(methylamino)-N-(2-oxaspiro[3.3]heptan-6-yl)pyrazolo[1,5-a]pyrimidine-3-carboxamide] and CNc1cc(Nc2cccn3cnnc23)nc2c(C(=O)N[C@H]3CC[C@@H]3OC)cnn12 [I-1102] cannot be ordered by IC50: greater than 50 µM for the first, greater than 2.5 µM for the second.

CNc1cc(Nc2cccn([C@H]3CC[C@@H]3O)c2=O)nc2c(C(=O)N[C@H]3CC[C@@H]3OC)cnn12 [I-1094] and CNc1cc(Nc2cccn([C@H]3CCCC[C@H]3OC)c2=O)nc2c(C(=O)N[C@H]3CC[C@@H]3OC)cnn12 [I-1097] cannot be ordered by IC50: greater than 50 µM for the first, greater than 50 µM for the second.

CNc1cc(Nc2cccn([C@@H]3CCC[C@@H](OC)C3)c2=O)nc2c(C(=O)N[C@H]3CC[C@@H]3OC)cnn12 [I-1099] and CNc1cc(Nc2cccn([C@H]3CCC[C@@H](OC)C3)c2=O)nc2c(C(=O)N[C@@H]3CC[C@H]3O)cnn12 [I-993] cannot be ordered by IC50: greater than 50 µM for the first, greater than 50 µM for the second.

CNc1cc(Nc2cccn([C@H]3CCC[C@H]3O)c2=O)nc2c(C(=O)N[C@@H]3C[C@@H]3F)cnn12 [I-965] and CNc1cc(Nc2cccc(N3CCCC3=O)n2)nc2c(C(=O)N[C@H]3CC[C@H]3O)cnn12 [I-969] cannot be ordered by IC50: greater than 50 µM for the first, greater than 50 µM for the second.

Same assay, conditions: read-out: PBMC_GMCSF_pSTAT5 IC50; human PBMC; GM-CSF 5 ng/mL for 20 minutes; pSTAT5

CNc1cc(Nc2cccn(-c3ncc(C)s3)c2=O)nc2c(C(=O)N[C@@H]3CC[C@@H]3O)cnn12 [I-1073] and CNc1cc(Nc2cccn([C@H]3CC[C@](C)(OC)CC3)c2=O)nc2c(C(=O)N[C@@H]3CC[C@H]3O)cnn12 [I-962] cannot be ordered by IC50: greater than 50 µM for the first, greater than 50 µM for the second.

CNc1cc(Nc2cccn([C@@H]3CCC[C@H](OC)C3)c2=O)nc2c(C(=O)N[C@@H]3CC[C@H]3OC)cnn12 [I-1082] and CNc1cc(Nc2cccn([C@H]3CC[C@](C)(OC)CC3)c2=O)nc2c(C(=O)N[C@@H]3CC[C@H]3O)cnn12 [I-1107] cannot be ordered by IC50: greater than 50 µM for the first, greater than 2.5 µM for the second.
